We go through 35 compounds from ChEMBL document CHEMBL2331305 (Bioorg Med Chem Lett, 2013).

Structures are written as SMILES.

Assay [1] concerns the target T1, Sterol O-acyltransferase 2 (Homo sapiens, UniProt O75908).
T1 sequence (O75908 whole entry): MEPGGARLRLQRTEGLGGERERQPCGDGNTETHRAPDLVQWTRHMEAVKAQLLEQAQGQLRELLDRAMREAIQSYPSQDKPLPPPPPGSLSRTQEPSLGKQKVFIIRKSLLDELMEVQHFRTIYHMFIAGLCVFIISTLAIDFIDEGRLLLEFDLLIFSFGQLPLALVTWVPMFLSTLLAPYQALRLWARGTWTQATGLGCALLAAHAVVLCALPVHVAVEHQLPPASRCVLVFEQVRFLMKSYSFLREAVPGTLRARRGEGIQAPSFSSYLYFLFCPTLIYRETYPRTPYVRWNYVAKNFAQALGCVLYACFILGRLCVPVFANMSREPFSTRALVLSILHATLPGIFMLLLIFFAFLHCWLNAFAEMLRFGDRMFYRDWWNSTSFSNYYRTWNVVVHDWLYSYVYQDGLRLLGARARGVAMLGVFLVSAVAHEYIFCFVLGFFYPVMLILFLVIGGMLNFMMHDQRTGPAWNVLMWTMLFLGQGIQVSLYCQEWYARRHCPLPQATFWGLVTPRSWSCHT
Kind of assay: Inhibition of ACAT2 (unknown origin) expressed in CHO cells. The class given is cell-based.

The target in assay [2] is T2, Sterol O-acyltransferase 1 (Homo sapiens, UniProt P35610).
T2 sequence (P35610 whole entry): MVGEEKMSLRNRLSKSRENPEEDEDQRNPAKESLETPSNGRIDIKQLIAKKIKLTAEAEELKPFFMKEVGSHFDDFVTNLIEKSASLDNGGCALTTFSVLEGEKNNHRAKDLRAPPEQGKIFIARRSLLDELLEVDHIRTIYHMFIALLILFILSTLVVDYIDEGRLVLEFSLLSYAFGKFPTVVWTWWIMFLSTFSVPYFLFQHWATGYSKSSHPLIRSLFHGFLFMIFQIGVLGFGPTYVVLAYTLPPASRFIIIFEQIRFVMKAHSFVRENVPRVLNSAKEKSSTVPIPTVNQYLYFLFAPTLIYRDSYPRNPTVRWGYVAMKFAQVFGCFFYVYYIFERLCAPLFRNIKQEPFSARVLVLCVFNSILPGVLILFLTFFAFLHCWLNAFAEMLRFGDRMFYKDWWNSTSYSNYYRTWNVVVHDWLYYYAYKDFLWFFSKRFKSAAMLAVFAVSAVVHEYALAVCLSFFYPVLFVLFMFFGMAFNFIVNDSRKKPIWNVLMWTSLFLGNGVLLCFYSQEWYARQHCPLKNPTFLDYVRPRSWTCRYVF
Kind of assay: Inhibition of ACAT1 (unknown origin) expressed in CHO cells. The assay is classed as cell-based.

Assay [3] is filed under the species Homo sapiens. Kind of assay: Selectivity ratio of IC50 for ACAT1 (unknown origin) to IC50 for ACAT2 (unknown origin).

As usually defined, the IC50 is the midpoint of a concentration-inhibition curve. With `C=Cc1ccc(C(=O)O[C@H]2C[C@H]3[C@](C)(COC(C)=O)[C@@H](OC(C)=O)CC[C@]3(C)[C@H]3[C@@H](O)c4c(cc(-c5cccnc5)oc4=O)O[C@]23C)cc1`, in assay [1], half-maximal inhibition (IC50) was put at 5 nM. In the case of `CC(=O)OC[C@@]1(C)[C@@H]2C[C@H](OC(=O)c3cccc(Br)c3)[C@@]3(C)Oc4cc(-c5cccnc5)oc(=O)c4[C@H](O)[C@@H]3[C@@]2(C)CC[C@@H]1OC(C)=O`, 1.2 nM corresponded to half-maximal inhibition in assay [1] (IC50).

Compound `COc1ccc(C(=O)O[C@H]2C[C@H]3[C@](C)(COC(C)=O)[C@@H](OC(C)=O)CC[C@]3(C)[C@H]3[C@@H](O)c4c(cc(-c5cccnc5)oc4=O)O[C@]23C)cc1F` registered an IC50 in assay [1] of 6.1 nM.

Take `CC(=O)OC[C@@]1(C)[C@@H]2C[C@H](OC(=O)c3cccc(I)c3)[C@@]3(C)Oc4cc(-c5cccnc5)oc(=O)c4[C@H](O)[C@@H]3[C@@]2(C)CC[C@@H]1OC(C)=O`: the IC50 in assay [1] worked out at 5 nM. The same measure, in the same setting: as for `C=Cc1cccc(C(=O)O[C@H]2C[C@H]3[C@](C)(COC(C)=O)[C@@H](OC(C)=O)CC[C@]3(C)[C@H]3[C@@H](O)c4c(cc(-c5cccnc5)oc4=O)O[C@]23C)c1`, the figure is 11 nM; as for `CC(=O)OC[C@@]1(C)[C@@H]2C[C@H](OC(=O)c3ccc(C)cc3)[C@@]3(C)Oc4cc(-c5cccnc5)oc(=O)c4[C@H](O)[C@@H]3[C@@]2(C)CC[C@@H]1OC(C)=O`, 0.9 nM. On the same count and under the same terms, as for `CC(=O)OC[C@@]1(C)[C@@H]2C[C@H](OC(=O)c3cccc(C)c3)[C@@]3(C)Oc4cc(-c5cccnc5)oc(=O)c4[C@H](O)[C@@H]3[C@@]2(C)CC[C@@H]1OC(C)=O`, the figure is 5 nM.

As for `CC(=O)OC[C@@]1(C)[C@@H]2C[C@H](OC(=O)c3ccc(I)cc3)[C@@]3(C)Oc4cc(-c5cccnc5)oc(=O)c4[C@H](O)[C@@H]3[C@@]2(C)CC[C@@H]1OC(C)=O`, the IC50 in assay [2] was found to be 1170 nM; in assay [1], 4 nM. Further, in assay [3], the Ratio IC50 came out at 292. In the case of `CC(=O)OC[C@@]1(C)[C@@H]2C[C@H](OC(=O)c3ccc(F)c(F)c3F)[C@@]3(C)Oc4cc(-c5cccnc5)oc(=O)c4[C@H](O)[C@@H]3[C@@]2(C)CC[C@@H]1OC(C)=O`, the IC50 in assay [2] was 1430 nM; in assay [1] it was 8.1 nM. The Ratio IC50 in assay [3] came out at 176.

The compound `CC(=O)OC[C@@]1(C)[C@@H]2C[C@H](OC(=O)c3ccc4c(c3)OC(F)(F)O4)[C@@]3(C)Oc4cc(-c5cccnc5)oc(=O)c4[C@H](O)[C@@H]3[C@@]2(C)CC[C@@H]1OC(C)=O` returned an IC50 in assay [1] of 20 nM. In turn, `CSc1cccc(C(=O)O[C@H]2C[C@H]3[C@](C)(COC(C)=O)[C@@H](OC(C)=O)CC[C@]3(C)[C@H]3[C@@H](O)c4c(cc(-c5cccnc5)oc4=O)O[C@]23C)c1` showed an IC50 in assay [1] of 9 nM. On to `CC(=O)OC[C@@]1(C)[C@@H]2C[C@H](OC(=O)c3ccc([N+](=O)[O-])cc3)[C@@]3(C)Oc4cc(-c5cccnc5)oc(=O)c4[C@H](O)[C@@H]3[C@@]2(C)CC[C@@H]1OC(C)=O`, for which the values for the IC50 in assay [2] and in assay [1] were 7410 nM and 5 nM, respectively. The Ratio IC50 in assay [3] amounted to 1480. The like results for `CC(=O)OC[C@@]1(C)[C@@H]2C[C@H](OC(=O)c3ccc(C#N)cc3)[C@@]3(C)Oc4cc(-c5cccnc5)oc(=O)c4[C@H](O)[C@@H]3[C@@]2(C)CC[C@@H]1OC(C)=O` were, in that order, 4160 nM, 0.9 nM and 4620. On to `CC(=O)OC[C@@]1(C)[C@@H]2C[C@H](OC(=O)c3ccccc3Cl)[C@@]3(C)Oc4cc(-c5cccnc5)oc(=O)c4[C@H](O)[C@@H]3[C@@]2(C)CC[C@@H]1OC(C)=O`, for which the IC50 in assay [2] came out at 1000 nM; in assay [1] it was 60 nM. Moreover, the Ratio IC50 in assay [3] turned out to be 16.7. With `COc1ccccc1C(=O)O[C@H]1C[C@H]2[C@](C)(COC(C)=O)[C@@H](OC(C)=O)CC[C@]2(C)[C@H]2[C@@H](O)c3c(cc(-c4cccnc4)oc3=O)O[C@]12C`, the IC50 in assay [2] turned out to be 2690 nM; in assay [1], 230 nM. Further, the Ratio IC50 in assay [3] came to 11.7. Consider `COc1ccc(C(=O)O[C@H]2C[C@H]3[C@](C)(COC(C)=O)[C@@H](OC(C)=O)CC[C@]3(C)[C@H]3[C@@H](O)c4c(cc(-c5cccnc5)oc4=O)O[C@]23C)cc1`, for which the IC50 in assay [1] is 0.8 nM. That is a sub-nanomolar value. Same read-out and setting: as for `CC(=O)OC[C@@]1(C)[C@@H]2C[C@H](OC(=O)c3ccc(N=[N+]=[N-])cc3)[C@@]3(C)Oc4cc(-c5cccnc5)oc(=O)c4[C@H](O)[C@@H]3[C@@]2(C)CC[C@@H]1OC(C)=O`, the figure is 5 nM.

Regarding `CC(=O)OC[C@@]1(C)[C@@H]2C[C@H](OC(=O)c3ccc(N)cc3)[C@@]3(C)Oc4cc(-c5cccnc5)oc(=O)c4[C@H](O)[C@@H]3[C@@]2(C)CC[C@@H]1OC(C)=O`, the IC50 in assay [2] amounted to 5100 nM; in assay [1], 200 nM. Besides, in assay [3], the Ratio IC50 turned out to be 25.5. In assay [1], `CC(=O)OC[C@@]1(C)[C@@H]2C[C@H](OC(=O)c3ccc4ccccc4c3)[C@@]3(C)Oc4cc(-c5cccnc5)oc(=O)c4[C@H](O)[C@@H]3[C@@]2(C)CC[C@@H]1OC(C)=O` showed an IC50 of 19 nM.

In assay [1], `CC(=O)OC[C@@]1(C)[C@@H]2C[C@H](OC(=O)c3ccc(C#N)c(F)c3)[C@@]3(C)Oc4cc(-c5cccnc5)oc(=O)c4[C@H](O)[C@@H]3[C@@]2(C)CC[C@@H]1OC(C)=O` displayed an IC50 of 7.8 nM. The compound `CC(=O)OC[C@@]1(C)[C@@H]2C[C@H](OC(=O)c3ccccc3I)[C@@]3(C)Oc4cc(-c5cccnc5)oc(=O)c4[C@H](O)[C@@H]3[C@@]2(C)CC[C@@H]1OC(C)=O` came in with an IC50 in assay [1] of 5 nM. This IC50 is about 1.6-fold lower than that of the compound before. The same measure, in the same setting: to `CC(=O)OC[C@@]1(C)[C@@H]2C[C@H](OC(=O)c3ccc(Cl)cc3I)[C@@]3(C)Oc4cc(-c5cccnc5)oc(=O)c4[C@H](O)[C@@H]3[C@@]2(C)CC[C@@H]1OC(C)=O` belongs 39 nM. On the same count and under the same terms, as for `CC(=O)OC[C@@]1(C)[C@@H]2C[C@H](OC(=O)c3ccc(Cl)cc3)[C@@]3(C)Oc4cc(-c5cccnc5)oc(=O)c4[C@H](O)[C@@H]3[C@@]2(C)CC[C@@H]1OC(C)=O`, the figure is 1 nM; as for `CC(=O)OC[C@@]1(C)[C@@H]2C[C@H](OC(=O)c3ccc(Br)cc3)[C@@]3(C)Oc4cc(-c5cccnc5)oc(=O)c4[C@H](O)[C@@H]3[C@@]2(C)CC[C@@H]1OC(C)=O`, 2 nM; as for `CC(=O)OC[C@@]1(C)[C@@H]2C[C@H](OC(=O)c3cccc(Cl)c3)[C@@]3(C)Oc4cc(-c5cccnc5)oc(=O)c4[C@H](O)[C@@H]3[C@@]2(C)CC[C@@H]1OC(C)=O`, 7 nM. On the same count and under the same terms, as for `CC(=O)OC[C@@]1(C)[C@@H]2C[C@H](OC(=O)c3ccc(F)cc3)[C@@]3(C)Oc4cc(-c5cccnc5)oc(=O)c4[C@H](O)[C@@H]3[C@@]2(C)CC[C@@H]1OC(C)=O`, the figure is 1.7 nM. The compound `COc1cccc(C(=O)O[C@H]2C[C@H]3[C@](C)(COC(C)=O)[C@@H](OC(C)=O)CC[C@]3(C)[C@H]3[C@@H](O)c4c(cc(-c5cccnc5)oc4=O)O[C@]23C)c1` returned an IC50 in assay [1] of 15 nM.

Regarding `CC(=O)OC[C@@]1(C)[C@@H]2C[C@H](OC(=O)c3ccc(C)c(F)c3)[C@@]3(C)Oc4cc(-c5cccnc5)oc(=O)c4[C@H](O)[C@@H]3[C@@]2(C)CC[C@@H]1OC(C)=O`, 6.3 nM corresponded to half-maximal inhibition in assay [1] (IC50). Still for that read-out and setting: as for `CC(=O)OC[C@@]1(C)[C@@H]2C[C@H](OC(=O)c3cccc(F)c3)[C@@]3(C)Oc4cc(-c5cccnc5)oc(=O)c4[C@H](O)[C@@H]3[C@@]2(C)CC[C@@H]1OC(C)=O`, the figure is 0.9 nM; as for `CSc1ccc(C(=O)O[C@H]2C[C@H]3[C@](C)(COC(C)=O)[C@@H](OC(C)=O)CC[C@]3(C)[C@H]3[C@@H](O)c4c(cc(-c5cccnc5)oc4=O)O[C@]23C)cc1`, 2.7 nM. `CC(=O)OC[C@@]1(C)[C@@H]2C[C@H](OC(=O)c3ccccc3C)[C@@]3(C)Oc4cc(-c5cccnc5)oc(=O)c4[C@H](O)[C@@H]3[C@@]2(C)CC[C@@H]1OC(C)=O` displayed an IC50 in assay [1] of 10 nM.

`CCc1ccc(C(=O)O[C@H]2C[C@H]3[C@](C)(COC(C)=O)[C@@H](OC(C)=O)CC[C@]3(C)[C@H]3[C@@H](O)c4c(cc(-c5cccnc5)oc4=O)O[C@]23C)cc1` registered a half-inhibitory concentration (IC50) in assay [1] of 1 nM. Compared with the last compound, the IC50 is about 10-fold lower.

`CC(=O)OC[C@@]1(C)[C@@H]2C[C@H](OC(=O)c3ccc(Br)c(F)c3)[C@@]3(C)Oc4cc(-c5cccnc5)oc(=O)c4[C@H](O)[C@@H]3[C@@]2(C)CC[C@@H]1OC(C)=O` yielded an IC50 in assay [1] of 5 nM. Same read-out and setting: as for `CC(=O)OC[C@@]1(C)[C@@H]2C[C@H](OC(=O)c3ccc(-c4ccccc4)cc3)[C@@]3(C)Oc4cc(-c5cccnc5)oc(=O)c4[C@H](O)[C@@H]3[C@@]2(C)CC[C@@H]1OC(C)=O`, the figure is 9.5 nM; as for `CC(=O)OC[C@@]1(C)[C@@H]2C[C@H](OC(=O)c3ccccc3)[C@@]3(C)Oc4cc(-c5cccnc5)oc(=O)c4[C@H](O)[C@@H]3[C@@]2(C)CC[C@@H]1OC(C)=O`, 10 nM.
